pIC50: −log10 of the molar value. “Also recorded” adds a separate entry of the source. Read-outs that look alike come from different tables or passages of the source.

For experiment [1], the system named is p-ERK (MAPK 42/44) in KM-12 cells. The experiment can be described thus: Western blot of phosphorylated MAPK 42/44 (ERK) in KM-12 cells. In kind it is cell-based. To be noted: KM-12 cells, 2 hours, western blot; b12: 100, 500, 1000 nM. On the procedure: (§1) 20 μg NTRK1 fusion confirmation
(§2) T20 (ThermoScientific, Rockford, IL) for 30 minutes. MiniPrep cat# R2051 following manufacturer ’s protocol. […]
(§3) (1:2000) (Sigma-Aldrich), HRP-conjugated mouse or primers. The primer sequences are TPM3_Ex3B_F5:
(§4) Chalfont, UK). All western blots were developed using Ex12_R5: […]. PCR was […]

The test system of experiment [2] is MKNK1/2 (p-eIF4E S209) in KM-12 cells. The experiment can be described thus: Western blot of p-eIF4E S209 in KM-12 cells. In kind it is cell-based. The note with it: KM-12 cells, 2 hours, western blot; for p-eIF4E reduction (MKNK1/2 inhibition, in words): b12: 100, 500, 1000 nM. How it is done:
as §1, §2, §3, §4

The next experiment has as its system KM-12 cells. The experiment in a line: KM-12 anchorage independent growth in alginate. In kind it is cell-based. To be noted: alginate, 72 hours, colony formation, read-out: IC50 KM-12 anchorage independent growth.
The target in a further experiment is NTRK1 (TrkA) (Homo sapiens, UniProt P04629). The experiment can be described thus: TrkA PathHunter cell based kinase assay (activation by NGF). Details: purchased DiscoveRx. The note with it: activation by the ligand NGF; ten-point, 3.8 nM - 10 μM.
The target in another experiment is MET (Homo sapiens, UniProt P08581). The experiment can be described thus: scanMAX kinase panel.
Another experiment addresses MST1R (Homo sapiens, UniProt Q04912). The experiment in a line: scanMAX kinase panel.
Another experiment has as its target ROS1 (Homo sapiens, UniProt P08922). The experiment can be described thus: scanMAX kinase panel.
A further experiment deals with MKNK1 (Homo sapiens, UniProt Q9BUB5). The experiment in a line: scanMAX kinase panel.
In the next experiment the target is T1, FLT3 (Homo sapiens, UniProt P36888).
T1 sequence (P36888 27-993): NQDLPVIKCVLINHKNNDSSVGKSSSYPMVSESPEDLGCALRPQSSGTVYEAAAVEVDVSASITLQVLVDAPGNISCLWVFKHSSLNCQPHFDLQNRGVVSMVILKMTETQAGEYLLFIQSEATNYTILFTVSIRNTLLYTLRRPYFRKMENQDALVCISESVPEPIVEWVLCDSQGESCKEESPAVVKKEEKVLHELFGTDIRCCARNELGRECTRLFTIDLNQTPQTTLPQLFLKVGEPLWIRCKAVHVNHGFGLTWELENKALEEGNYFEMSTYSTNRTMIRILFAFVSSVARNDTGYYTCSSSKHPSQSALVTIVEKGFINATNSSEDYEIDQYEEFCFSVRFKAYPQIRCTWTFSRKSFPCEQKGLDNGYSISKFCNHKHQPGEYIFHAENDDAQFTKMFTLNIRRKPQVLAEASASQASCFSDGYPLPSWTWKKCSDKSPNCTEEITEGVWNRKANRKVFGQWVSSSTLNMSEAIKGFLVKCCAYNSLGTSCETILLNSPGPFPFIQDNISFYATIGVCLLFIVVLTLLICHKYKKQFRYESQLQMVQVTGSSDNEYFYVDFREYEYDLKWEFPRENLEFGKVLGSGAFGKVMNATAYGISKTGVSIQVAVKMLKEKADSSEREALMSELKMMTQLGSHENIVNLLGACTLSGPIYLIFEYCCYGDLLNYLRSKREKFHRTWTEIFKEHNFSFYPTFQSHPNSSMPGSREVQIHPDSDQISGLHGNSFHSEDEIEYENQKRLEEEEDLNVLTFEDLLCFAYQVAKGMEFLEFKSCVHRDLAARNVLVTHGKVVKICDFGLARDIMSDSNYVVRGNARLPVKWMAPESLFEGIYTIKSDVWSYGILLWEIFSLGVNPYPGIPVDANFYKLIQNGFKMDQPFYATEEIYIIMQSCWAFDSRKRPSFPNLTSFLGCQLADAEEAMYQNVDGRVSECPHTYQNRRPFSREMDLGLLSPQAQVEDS
The experiment can be described thus: scanMAX kinase panel.

The target in the next experiment is DDR1 (Homo sapiens, UniProt Q08345). The experiment can be described thus: scanMAX kinase panel.
The target in a further experiment is T2, DDR2 (Homo sapiens, UniProt Q16832).
T2 sequence (Q16832 22-855): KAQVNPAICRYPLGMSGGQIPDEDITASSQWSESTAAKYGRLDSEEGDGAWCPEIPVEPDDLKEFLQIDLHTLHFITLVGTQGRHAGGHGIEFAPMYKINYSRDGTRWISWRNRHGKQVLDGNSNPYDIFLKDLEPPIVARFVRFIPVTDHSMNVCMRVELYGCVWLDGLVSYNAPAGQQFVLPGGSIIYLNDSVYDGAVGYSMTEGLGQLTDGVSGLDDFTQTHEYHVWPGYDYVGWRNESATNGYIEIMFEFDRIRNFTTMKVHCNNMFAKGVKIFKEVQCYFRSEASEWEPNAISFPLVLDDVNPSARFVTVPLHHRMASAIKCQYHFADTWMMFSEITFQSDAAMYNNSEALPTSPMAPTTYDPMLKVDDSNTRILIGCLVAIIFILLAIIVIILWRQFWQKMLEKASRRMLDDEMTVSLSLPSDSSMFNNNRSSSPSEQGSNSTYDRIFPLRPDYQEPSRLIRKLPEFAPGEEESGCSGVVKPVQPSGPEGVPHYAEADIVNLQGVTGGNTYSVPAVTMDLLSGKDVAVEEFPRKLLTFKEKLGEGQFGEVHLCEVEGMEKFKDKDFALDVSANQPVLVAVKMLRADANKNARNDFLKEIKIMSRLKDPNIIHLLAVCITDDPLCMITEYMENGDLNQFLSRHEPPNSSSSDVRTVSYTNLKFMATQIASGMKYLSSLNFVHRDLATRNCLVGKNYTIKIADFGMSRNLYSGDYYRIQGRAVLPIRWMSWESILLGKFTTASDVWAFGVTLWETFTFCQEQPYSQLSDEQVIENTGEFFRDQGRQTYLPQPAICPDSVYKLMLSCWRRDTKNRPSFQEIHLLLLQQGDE
The experiment can be described thus: scanMAX kinase panel.

The next experiment concerns the target CSF1R (Homo sapiens, UniProt P07333). The experiment in a line: scanMAX kinase panel.
The target in experiment [3] is TPM3-NTRK1 (p-NTRK1 Y490) in KM-12 cells (Homo sapiens, UniProt P04629+P06753). The experiment in a line: Western blot of p-NTRK1 Y490 in KM-12 cells. The note with it: 2 hours, b12: 100, 500, 1000 nM.
Chain of TPM3-NTRK1 (p-NTRK1 Y490) in KM-12 cells (P06753+P04629 fused): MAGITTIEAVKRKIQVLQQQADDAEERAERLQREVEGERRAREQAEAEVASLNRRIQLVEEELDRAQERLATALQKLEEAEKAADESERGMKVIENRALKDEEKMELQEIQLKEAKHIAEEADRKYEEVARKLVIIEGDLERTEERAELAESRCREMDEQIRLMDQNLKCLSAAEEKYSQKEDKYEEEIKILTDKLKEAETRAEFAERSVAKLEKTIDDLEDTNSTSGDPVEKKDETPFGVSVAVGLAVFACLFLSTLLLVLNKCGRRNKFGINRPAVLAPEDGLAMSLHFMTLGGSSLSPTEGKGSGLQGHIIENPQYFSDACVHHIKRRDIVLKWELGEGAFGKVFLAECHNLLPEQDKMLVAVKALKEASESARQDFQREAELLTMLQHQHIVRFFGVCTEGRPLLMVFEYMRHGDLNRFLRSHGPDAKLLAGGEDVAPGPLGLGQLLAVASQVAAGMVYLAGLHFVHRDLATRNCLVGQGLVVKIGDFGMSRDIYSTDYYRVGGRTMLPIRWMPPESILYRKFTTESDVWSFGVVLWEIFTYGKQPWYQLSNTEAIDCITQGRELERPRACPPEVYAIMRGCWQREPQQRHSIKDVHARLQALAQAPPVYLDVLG

Chain of CSF1R (P07333 20-972): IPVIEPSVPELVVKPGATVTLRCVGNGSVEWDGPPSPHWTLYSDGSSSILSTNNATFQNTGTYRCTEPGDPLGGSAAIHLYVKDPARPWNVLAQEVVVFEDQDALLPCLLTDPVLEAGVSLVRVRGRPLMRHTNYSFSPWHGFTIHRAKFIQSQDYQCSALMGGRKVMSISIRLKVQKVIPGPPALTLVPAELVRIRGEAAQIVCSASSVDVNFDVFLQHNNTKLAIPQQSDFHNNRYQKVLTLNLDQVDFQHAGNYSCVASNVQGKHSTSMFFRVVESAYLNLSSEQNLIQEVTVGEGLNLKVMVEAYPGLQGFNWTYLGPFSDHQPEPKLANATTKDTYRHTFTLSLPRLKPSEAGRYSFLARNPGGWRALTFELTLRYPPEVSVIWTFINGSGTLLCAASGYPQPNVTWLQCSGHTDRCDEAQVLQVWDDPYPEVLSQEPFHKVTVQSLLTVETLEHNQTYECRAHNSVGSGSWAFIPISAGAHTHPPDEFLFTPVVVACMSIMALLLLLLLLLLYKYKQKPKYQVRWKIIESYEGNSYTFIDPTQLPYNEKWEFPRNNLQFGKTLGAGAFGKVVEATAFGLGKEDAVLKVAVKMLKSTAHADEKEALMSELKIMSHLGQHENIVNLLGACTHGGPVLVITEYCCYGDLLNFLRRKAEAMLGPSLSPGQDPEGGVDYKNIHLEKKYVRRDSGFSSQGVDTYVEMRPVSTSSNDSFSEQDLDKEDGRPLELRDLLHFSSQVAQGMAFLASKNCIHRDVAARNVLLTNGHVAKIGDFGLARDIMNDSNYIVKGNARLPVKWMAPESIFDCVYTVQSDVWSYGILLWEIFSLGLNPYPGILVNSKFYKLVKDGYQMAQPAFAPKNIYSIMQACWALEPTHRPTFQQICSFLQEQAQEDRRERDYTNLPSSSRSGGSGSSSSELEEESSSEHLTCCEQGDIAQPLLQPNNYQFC
Chain of NTRK1 (TrkA) (P04629 33-796): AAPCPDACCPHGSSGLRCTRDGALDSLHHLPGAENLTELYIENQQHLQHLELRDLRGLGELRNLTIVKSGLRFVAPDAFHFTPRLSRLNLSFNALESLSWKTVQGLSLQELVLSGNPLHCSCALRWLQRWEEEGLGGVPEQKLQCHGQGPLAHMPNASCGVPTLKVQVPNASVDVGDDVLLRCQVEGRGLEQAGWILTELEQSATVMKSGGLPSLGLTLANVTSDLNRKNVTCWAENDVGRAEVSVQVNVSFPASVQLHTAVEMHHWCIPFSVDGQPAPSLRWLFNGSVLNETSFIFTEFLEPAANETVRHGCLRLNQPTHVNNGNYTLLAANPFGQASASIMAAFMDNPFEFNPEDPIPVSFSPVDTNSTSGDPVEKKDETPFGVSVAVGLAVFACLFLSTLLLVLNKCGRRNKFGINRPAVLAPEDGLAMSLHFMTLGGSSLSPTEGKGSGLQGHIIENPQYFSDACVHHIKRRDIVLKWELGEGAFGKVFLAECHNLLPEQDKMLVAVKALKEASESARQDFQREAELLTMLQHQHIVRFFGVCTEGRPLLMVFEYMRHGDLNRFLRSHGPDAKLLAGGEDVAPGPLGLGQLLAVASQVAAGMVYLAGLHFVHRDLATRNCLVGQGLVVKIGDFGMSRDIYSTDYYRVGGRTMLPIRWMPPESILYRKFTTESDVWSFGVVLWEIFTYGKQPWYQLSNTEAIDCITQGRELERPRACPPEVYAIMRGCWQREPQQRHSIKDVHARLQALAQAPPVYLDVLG
Chain of MET (P08581 25-1390): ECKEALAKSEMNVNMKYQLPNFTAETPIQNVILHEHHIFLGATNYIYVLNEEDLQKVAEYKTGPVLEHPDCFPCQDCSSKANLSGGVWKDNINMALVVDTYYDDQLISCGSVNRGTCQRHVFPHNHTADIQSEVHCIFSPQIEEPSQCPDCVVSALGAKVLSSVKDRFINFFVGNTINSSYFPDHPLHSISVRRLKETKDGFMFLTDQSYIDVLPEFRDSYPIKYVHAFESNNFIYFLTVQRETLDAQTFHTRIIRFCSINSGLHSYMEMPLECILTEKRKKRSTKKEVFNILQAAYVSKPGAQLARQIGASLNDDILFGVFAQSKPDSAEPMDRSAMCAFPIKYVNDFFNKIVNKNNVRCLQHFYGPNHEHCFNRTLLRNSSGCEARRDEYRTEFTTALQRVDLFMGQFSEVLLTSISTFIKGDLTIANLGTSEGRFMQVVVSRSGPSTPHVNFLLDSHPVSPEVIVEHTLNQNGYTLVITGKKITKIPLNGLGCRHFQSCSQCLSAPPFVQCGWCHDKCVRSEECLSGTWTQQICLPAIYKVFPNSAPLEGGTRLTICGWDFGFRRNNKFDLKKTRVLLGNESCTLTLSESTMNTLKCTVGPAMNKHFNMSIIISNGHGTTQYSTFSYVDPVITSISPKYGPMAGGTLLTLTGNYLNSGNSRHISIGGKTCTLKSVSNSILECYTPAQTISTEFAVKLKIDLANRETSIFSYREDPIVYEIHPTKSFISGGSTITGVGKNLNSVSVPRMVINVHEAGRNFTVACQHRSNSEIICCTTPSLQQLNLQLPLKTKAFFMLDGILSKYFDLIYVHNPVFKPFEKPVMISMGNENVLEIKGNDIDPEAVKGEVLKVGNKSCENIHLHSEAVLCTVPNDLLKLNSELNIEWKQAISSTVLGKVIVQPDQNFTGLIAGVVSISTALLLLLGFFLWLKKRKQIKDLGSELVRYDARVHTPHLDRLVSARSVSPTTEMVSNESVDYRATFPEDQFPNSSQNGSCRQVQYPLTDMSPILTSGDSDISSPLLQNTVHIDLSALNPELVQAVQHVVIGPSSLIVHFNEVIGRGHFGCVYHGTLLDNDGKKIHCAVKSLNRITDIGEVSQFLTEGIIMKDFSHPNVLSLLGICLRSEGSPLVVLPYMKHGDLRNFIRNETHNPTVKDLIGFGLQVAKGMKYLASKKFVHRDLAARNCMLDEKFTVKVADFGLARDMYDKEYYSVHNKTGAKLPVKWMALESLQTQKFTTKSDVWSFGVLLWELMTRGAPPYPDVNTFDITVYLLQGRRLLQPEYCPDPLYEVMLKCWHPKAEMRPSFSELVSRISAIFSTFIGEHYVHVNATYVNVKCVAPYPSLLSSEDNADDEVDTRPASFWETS
Chain of DDR1 (Q08345 19-913): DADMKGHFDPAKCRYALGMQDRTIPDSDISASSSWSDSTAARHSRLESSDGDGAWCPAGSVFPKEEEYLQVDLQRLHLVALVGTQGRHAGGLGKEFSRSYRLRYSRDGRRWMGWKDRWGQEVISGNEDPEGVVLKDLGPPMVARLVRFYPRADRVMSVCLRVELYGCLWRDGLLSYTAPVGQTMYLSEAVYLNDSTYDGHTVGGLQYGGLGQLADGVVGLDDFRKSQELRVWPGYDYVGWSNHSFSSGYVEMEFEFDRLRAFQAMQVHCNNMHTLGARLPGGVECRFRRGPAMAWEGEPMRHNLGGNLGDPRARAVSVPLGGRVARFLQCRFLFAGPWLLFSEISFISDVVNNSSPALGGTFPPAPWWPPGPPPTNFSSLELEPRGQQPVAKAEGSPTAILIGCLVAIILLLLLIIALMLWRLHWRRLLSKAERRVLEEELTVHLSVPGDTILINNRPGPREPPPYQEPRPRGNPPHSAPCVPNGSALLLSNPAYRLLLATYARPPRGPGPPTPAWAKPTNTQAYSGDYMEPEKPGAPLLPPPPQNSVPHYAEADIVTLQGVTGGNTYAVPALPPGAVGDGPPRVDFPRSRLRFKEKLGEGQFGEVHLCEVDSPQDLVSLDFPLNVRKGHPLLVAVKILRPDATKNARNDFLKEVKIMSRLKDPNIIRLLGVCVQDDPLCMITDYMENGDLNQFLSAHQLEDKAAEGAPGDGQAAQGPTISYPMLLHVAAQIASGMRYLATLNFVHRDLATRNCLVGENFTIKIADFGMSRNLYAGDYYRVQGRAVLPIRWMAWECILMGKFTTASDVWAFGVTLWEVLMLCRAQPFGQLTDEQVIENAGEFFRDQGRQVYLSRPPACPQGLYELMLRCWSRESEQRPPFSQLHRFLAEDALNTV
Chain of MKNK1 (Q9BUB5 whole entry): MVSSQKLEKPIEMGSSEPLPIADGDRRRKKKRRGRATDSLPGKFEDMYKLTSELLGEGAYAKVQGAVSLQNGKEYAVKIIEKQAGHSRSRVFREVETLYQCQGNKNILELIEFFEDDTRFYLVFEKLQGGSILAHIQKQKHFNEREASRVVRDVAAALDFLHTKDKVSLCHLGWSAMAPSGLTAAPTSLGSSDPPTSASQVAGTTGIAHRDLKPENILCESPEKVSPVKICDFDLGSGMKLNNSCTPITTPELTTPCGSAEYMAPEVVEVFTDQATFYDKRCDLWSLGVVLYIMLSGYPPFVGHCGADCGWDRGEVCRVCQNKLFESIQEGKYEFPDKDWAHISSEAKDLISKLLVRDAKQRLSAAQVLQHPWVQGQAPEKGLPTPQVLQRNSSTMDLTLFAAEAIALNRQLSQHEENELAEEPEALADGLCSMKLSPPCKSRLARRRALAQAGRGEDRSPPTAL

In the case of `Cc1ccc(C(=O)Nc2ccc(Oc3cc4cnn(C)c4cc3-c3cn[nH]c3)c(F)c2)c(=O)n1-c1ccc(F)cc1` [Merestinib], in experiment [1], the “p-ERK inhibition (in words)” value is recorded as “dose dependent inhibition; also recorded: potent inhibition”. Besides, the “Concentration giving near-complete inhibition of p-eIF4E” value in experiment [2] (3.9-1000 nM) was determined as 62.5 nM. Besides, the “p-eIF4E reduction (MKNK1/2 inhibition, in words)” value in experiment [2] is given as “potent inhibition”. Further, the pIC50 is 7.35 in the experiment with KM-12 cells (Homo sapiens, KM12) and 7.77 against NTRK1 (TrkA). In addition, at MET, the “% Inhibition at 0.2 μM, MET” value amounted to 98%. Besides, the “% Inhibition at 0.2 μM, MST1R” value at MST1R is 96%. For the same molecule, the “% Inhibition at 0.2 μM, ROS1” value on ROS1 came out at 83%. Besides, the inhibition at 0.2 µM at MKNK1 (read-out: % Inhibition at 0.2 μM, MKNK1) is 56%. Besides, the “% Inhibition at 0.2 μM, FLT3” value on FLT3 is on record as 95%. The “% Inhibition at 0.2 μM, DDR1” value on DDR1 is on record as 100%. Further, on DDR2, the “% Inhibition at 0.2 μM, DDR2” value is reported as 97%. Also, the “% Inhibition at 0.2 μM, CSF1R” value on CSF1R is given as 97%. In addition, the “p-NTRK1 inhibition (in words)” value in [3] was “dose dependent decrease; also recorded: potent inhibition”.

For the molecule `Cn1ncc2cc(Oc3ccc(NC(=O)c4ccc(CO)n(-c5ccc(F)cc5)c4=O)cc3F)c(-c3cn[nH]c3)cc21` [M2], the “p-ERK inhibition (in words)” value in experiment [1] is reported as “slightly less so”. Further, in experiment [2], the “p-eIF4E reduction (MKNK1/2 inhibition, in words)” value is on record as “slightly less so”. Also, the negative-log IC50 (pIC50) in the experiment with KM-12 cells was 6.69; on NTRK1 (TrkA), 7.04. Further, the “% Inhibition at 0.2 μM, MET” value on MET is recorded as 93%. Also, the “% Inhibition at 0.2 μM, MST1R” value at MST1R came out at 88%. On ROS1, the “% Inhibition at 0.2 μM, ROS1” value is reported as 78%. For the same molecule, the “% Inhibition at 0.2 μM, MKNK1” value on MKNK1 was 62%. At FLT3, the “% Inhibition at 0.2 μM, FLT3” value was 97%. Moreover, the “% Inhibition at 0.2 μM, DDR1” value on DDR1 stood at 100%. Further, the “% Inhibition at 0.2 μM, DDR2” value on DDR2 is 99%. Further, at CSF1R, the “% Inhibition at 0.2 μM, CSF1R” value worked out at 97%. The “p-NTRK1 inhibition (in words)” value in [3] is “slightly less so”.

On to `Cc1ccc(C(=O)Nc2ccc(Oc3cc4cn[nH]c4cc3-c3cn[nH]c3)c(F)c2)c(=O)n1-c1ccc(F)cc1` [M1], for which the “p-ERK inhibition (in words)” value in experiment [1] is given as “potent inhibition”. Moreover, the “p-eIF4E reduction (MKNK1/2 inhibition, in words)” value in [2] is reported as “potent inhibition”. Besides, the values for the negative-log IC50 (pIC50) with KM-12 cells and at NTRK1 (TrkA) were 7.10 and 7.92, respectively. At MET, the “% Inhibition at 0.2 μM, MET” value came out at 100%. Besides, on MST1R, the “% Inhibition at 0.2 μM, MST1R” value is 95%. For the same molecule, the “% Inhibition at 0.2 μM, ROS1” value on ROS1 amounted to 95%. Moreover, the “% Inhibition at 0.2 μM, MKNK1” value on MKNK1 was found to be 70%. In addition, the “% Inhibition at 0.2 μM, FLT3” value on FLT3 is on record as 96%. The “% Inhibition at 0.2 μM, DDR1” value at DDR1 turned out to be 100%. Further, the “% Inhibition at 0.2 μM, DDR2” value on DDR2 was determined as 94%. Further, on CSF1R, the “% Inhibition at 0.2 μM, CSF1R” value came to 98%. Further, the “p-NTRK1 inhibition (in words)” value in [3] was “potent inhibition”.

For the origin of these results see article PMC5862616 (Oncotarget, 2018).
